Measured values as given in patent US11344510B2, “Arylcyclohexylamine derivatives and their use in the treatment of psychiatric disorders” (Gilgamesh Pharmaceuticals, Inc., priority 2019, dated 2022).

Columns and labels:
[1] = target: T1, vesicular monoamine transporter 2 (VMAT2) (Homo sapiens, UniProt Q05940); assay: Fluorescent substrate uptake inhibition, VMAT2; format: cell-based; details: for inhibition at 10 µM: transfected cells
T1 construct: expressed in transfected cells
Description: (§1) Uptake Inhibition. The ability of test compounds to block monoamine uptake by SERT, NET, DAT, and VMAT2 was determined using the Neurotransmitter Transporter Uptake Assay Kit manufactured by Molecular Devices (Cat #R8173). Briefly, stably transfected cells expressing the MAT of interest (HEK293 cells for SERT and NET; CHO cells for DAT) were grown and plated into 384-well plates at a concentration of 20,000 cells per well. Plates were then incubated for 16-20 h at 37° C. and 5% CO2. The medium was then aspirated and replaced with 25 μL of assay buffer (20 mM HEPES in HBSS, containing 0.1% BSA) containing the test compounds at the appropriate concentrations. Plates were then centrifuged at 300 rpm for 15 s and then incubated at 37° C. for 30 minutes. At this time, 25 μL of the proprietary fluorescent dye solution was added, the plates were incubated at 37° C. for 60 minutes, and then fluorescence was quantified on a plate reader (excitation wavelength=440 nm, emission wavelength=520 nm). The proprietary dye solution contains a mixture of 1) a fluorescent dye that mimics the endogenous substrates of MATs and is thereby actively transported to the intracellular compartment in the absence of an inhibitor and 2) a masking dye that inhibits the fluorescence of dye 1 in the extracellular compartment. Therefore, the overall fluorescence of the system increases as the fluorescent dye is transported into the cells.

[2] = HLM stability (Low Activity, Alternative Method); format: in vitro ADME; details: both sexes, human, liver microsomes, pH 7.4, Condition 1 column, values marked *: Low Activity, 0.50 mg protein/mL
Description: (§2) HLM Stability (Low Activity, Alternative Method). Pooled HLM from adult male and female donors (Corning 452117) were used. Microsomal incubations were carried out in multi-well plates. Liver microsomal incubation medium consisted of PBS (100 mM, pH 7.4), MgCl2 (1 mM), and NADPH (1 mM), with 0.50 mg of liver microsomal protein per mL. Control incubations were performed by replacing the NADPH-cofactor system with PBS. Test compounds (1 μM, final solvent concentration 1.0%) were incubated with microsomes at 37° C. with constant shaking. Six time points over 60 minutes were analyzed, with 60 μL aliquots of the reaction mixture being drawn at each time point. The reaction aliquots were stopped by adding 180 μL of cold (4° C.) acetonitrile containing 200 ng/mL tolbutamide and 200 ng/mL labetalol as internal standards (IS), followed by shaking for 10 minutes, and then protein sedimentation by centrifugation at 4000 rpm for 20 minutes at 4° C. Supernatant samples (80 μL) were diluted with water (240 μL) and analyzed for parent compound remaining using a fit-for-purpose liquid chromatography-tandem mass spectrometry (LC-MS/MS) method.
(§3) Data Analysis. The elimination constant (kel), half-life (t1/2) and intrinsic clearance (Clint) were determined in a plot of […] versus time, using linear regression analysis.

[3] = RLM stability (Low Activity); format: in vitro ADME, Sprague Dawley rats; details: male, Sprague Dawley, rat, liver microsomes, pH 7.4, Condition 1 (Low Activity), 0.50 mg protein/mL
Description: as §2, with “RLM” for “HLM”, “Activity).” for “Activity, Alternative Method).”, “from” for “from adult”, “Sprague Dawley rats (XenoTech R1000)” for “and female donors (Corning 452117)”
as §3

[4] = target: T2, norepinephrine transporter (NET) (Homo sapiens, UniProt P23975); assay: Fluorescent substrate uptake inhibition, NET; format: cell-based; details: for inhibition at 10 µM: HEK293 cells expressing NET
T2 construct: expressed in transfected cells; host or cells: HEK293
Description: as §1

[5] = target: MK-801 binding site of the N-methyl-D-aspartate receptor (NMDAR); assay: NMDAR radioligand binding with [3H]MK-801, Method B; parameters: species or system Sprague Dawley rat; details: MK-801 site, Method B, male Sprague Dawley rat cortex, 5.0 nM [3H]MK-801; read-out: NMDAR Ki ± SEM
Description: Radioligand Binding—Method B. Affinity of the test compounds for NMDAR was determined in radioligand binding experiments with [^3H]MK-801 by WuXi AppTec (Hong Kong) Limited, under the conditions described in Table 13.

[6] = MLM stability (Low Activity); format: in vitro ADME, CD-1 mice; details: male, CD-1, mouse, liver microsomes, pH 7.4, Condition 1 (Low Activity), 0.50 mg protein/mL
Description: as §2, with “MLM” for “HLM”, “Activity).” for “Activity, Alternative Method).”, “from” for “from adult”, “CD-1 mice (XenoTech M1000)” for “and female donors (Corning 452117)”
as §3

[7] = target: T3, serotonin transporter (SERT) (Homo sapiens, UniProt P31645); assay: Fluorescent substrate uptake inhibition, SERT; format: cell-based; details: for inhibition at 10 µM: HEK293 cells expressing SERT
T3 construct: expressed in transfected cells; host or cells: HEK293
Description: as §1

[8] = target: T4, dopamine transporter (DAT) (Homo sapiens, UniProt Q01959); assay: Fluorescent substrate uptake inhibition, DAT; format: cell-based; details: for inhibition at 10 µM: CHO cells expressing DAT
T4 construct: expressed in transfected cells; host or cells: CHO (uptake)
Description: as §1

T4 sequence (Q01959 whole entry, species assumed): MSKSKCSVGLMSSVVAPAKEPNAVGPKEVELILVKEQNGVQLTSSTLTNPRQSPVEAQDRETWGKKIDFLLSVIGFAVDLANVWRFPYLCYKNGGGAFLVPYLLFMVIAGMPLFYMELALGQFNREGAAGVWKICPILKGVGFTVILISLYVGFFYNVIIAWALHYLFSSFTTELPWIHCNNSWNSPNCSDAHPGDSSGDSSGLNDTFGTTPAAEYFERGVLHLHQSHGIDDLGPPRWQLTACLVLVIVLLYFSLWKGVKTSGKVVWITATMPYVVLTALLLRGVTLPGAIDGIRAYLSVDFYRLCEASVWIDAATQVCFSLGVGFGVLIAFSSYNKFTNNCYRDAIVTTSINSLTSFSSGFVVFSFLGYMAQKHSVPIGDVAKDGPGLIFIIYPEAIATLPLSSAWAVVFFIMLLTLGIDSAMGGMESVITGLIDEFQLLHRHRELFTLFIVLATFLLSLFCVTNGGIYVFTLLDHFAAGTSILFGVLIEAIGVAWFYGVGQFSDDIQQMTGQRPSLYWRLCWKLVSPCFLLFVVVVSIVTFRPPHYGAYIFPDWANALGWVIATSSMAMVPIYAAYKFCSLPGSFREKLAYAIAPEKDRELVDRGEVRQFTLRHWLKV
T1 sequence (Q05940 whole entry, species assumed): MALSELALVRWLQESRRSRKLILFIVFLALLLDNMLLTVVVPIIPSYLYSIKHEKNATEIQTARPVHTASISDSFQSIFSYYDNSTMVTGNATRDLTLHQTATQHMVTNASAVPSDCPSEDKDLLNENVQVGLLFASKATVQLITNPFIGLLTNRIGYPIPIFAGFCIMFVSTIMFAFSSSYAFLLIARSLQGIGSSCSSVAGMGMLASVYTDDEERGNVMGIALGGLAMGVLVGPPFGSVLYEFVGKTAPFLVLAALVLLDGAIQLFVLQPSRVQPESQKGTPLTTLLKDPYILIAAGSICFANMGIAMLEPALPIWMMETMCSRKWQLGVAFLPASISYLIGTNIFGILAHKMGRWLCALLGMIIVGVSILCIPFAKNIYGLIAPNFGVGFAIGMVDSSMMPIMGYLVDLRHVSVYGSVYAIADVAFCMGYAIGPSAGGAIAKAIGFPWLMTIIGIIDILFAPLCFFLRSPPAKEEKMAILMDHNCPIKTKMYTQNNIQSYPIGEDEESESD
T3 sequence (P31645 whole entry, species assumed): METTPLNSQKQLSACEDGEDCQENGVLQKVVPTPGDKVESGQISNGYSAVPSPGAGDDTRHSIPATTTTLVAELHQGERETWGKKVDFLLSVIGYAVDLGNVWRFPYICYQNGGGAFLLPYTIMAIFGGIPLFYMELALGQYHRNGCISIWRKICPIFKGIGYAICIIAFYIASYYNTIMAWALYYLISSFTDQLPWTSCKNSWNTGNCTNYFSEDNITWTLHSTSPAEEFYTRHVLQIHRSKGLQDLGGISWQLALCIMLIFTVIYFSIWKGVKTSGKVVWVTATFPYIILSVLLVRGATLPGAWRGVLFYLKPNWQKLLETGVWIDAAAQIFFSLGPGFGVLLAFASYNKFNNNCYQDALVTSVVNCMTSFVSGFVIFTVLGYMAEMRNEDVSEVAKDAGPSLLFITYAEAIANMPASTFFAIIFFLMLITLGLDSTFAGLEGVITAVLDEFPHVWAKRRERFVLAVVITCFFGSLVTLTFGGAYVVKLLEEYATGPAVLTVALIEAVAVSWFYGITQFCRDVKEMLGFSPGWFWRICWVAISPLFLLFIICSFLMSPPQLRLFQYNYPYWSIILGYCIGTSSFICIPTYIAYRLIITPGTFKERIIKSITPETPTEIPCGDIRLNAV
T2 sequence (P23975 whole entry, species assumed): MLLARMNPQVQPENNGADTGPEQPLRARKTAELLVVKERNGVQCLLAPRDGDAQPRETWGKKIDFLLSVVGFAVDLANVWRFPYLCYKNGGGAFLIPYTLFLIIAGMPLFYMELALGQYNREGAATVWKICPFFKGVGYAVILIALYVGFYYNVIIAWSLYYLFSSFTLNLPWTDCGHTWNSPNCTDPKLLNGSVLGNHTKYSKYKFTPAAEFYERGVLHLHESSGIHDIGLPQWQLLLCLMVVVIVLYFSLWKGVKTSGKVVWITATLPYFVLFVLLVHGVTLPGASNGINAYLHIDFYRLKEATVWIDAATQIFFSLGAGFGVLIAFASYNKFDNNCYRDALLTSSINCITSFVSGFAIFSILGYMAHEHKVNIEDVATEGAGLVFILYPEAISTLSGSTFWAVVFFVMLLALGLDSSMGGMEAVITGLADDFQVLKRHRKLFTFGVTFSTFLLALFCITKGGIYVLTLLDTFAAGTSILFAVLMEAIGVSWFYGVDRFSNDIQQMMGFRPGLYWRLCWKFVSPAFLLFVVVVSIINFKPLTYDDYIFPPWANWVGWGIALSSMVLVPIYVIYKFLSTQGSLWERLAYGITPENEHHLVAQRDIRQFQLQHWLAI

| SMILES | inhibition at 10 µM [1] | half-life at 1 μM [2] | microsomal CLint at 1 μM [2] | half-life at 1 μM [3] | microsomal CLint at 1 μM [3] | inhibition at 10 µM [4] | Ki [5] | half-life at 1 μM [6] | microsomal CLint at 1 μM [6] | inhibition at 10 µM [7] | inhibition at 10 µM [8] | IC50 [1] | IC50 [4] | IC50 [7] | IC50 [8] |
| --- | --- | --- | --- | --- | --- | --- | --- | --- | --- | --- | --- | --- | --- | --- | --- |
| Cc1cccc(C2(N)CCCCC2=O)c1 (racemic) [Compound 118rac, 2-amino-2-(m-tolyl)cyclohexan-1-one] | 36.6% | > 145 min | < 9.6 µL/min/mg | 7.2 min | 192 µL/min/mg | 19.5% | 4.5 µM | 84.4 min | 16.4 µL/min/mg | 16.9% | 23.8% | – | – | – | – |
| CCN(CC)[C@]1(c2ccccc2)CCCCC1=O [Compound 25S, (S)-2-(diethylamino)-2-phenylcyclohexanone] | 1.7% | 42 min | 33 µL/min/mg | 14.5 min | 95.4 µL/min/mg | -0.13% | 5.2 µM | 8.6 min | 161 µL/min/mg | 45.6% | 24.9% | – | – | – | – |
| O=C1CCCC[C@]1(c1ccccc1)N1CCCC1 [Compound 27R, (R)-2-phenyl-2-(pyrrolidin-1-yl)cyclohexan-1-one] | – | > 145 min | < 9.6 µL/min/mg | 55.9 min | 24.8 µL/min/mg | – | 3.1 µM | 40.4 min | 34.3 µL/min/mg | – | – | 18.1 µM | 17.3 µM | 2.1 µM | 21 µM |
| COCCN[C@]1(c2ccccc2)CCCCC1=O [Compound 29S, (5)-2-((2-methoxyethyl)amino)-2-phenylcyclohexan-1-one] | -10.5% | > 145 min | < 9.6 µL/min/mg | 31.8 min | 43.6 µL/min/mg | 4% | 8.2 µM | 35.7 min | 35.8 µL/min/mg | -12.9% | 13.7% | – | – | – | – |
| COCCN[C@@]1(c2ccccc2)CCCCC1=O [Compound 29R, (R)-2-((2-methoxyethyl)amino)-2-phenylcyclohexan-1-one] | -31.9% | > 145 min | < 9.6 µL/min/mg | 32.2 min | 43 µL/min/mg | -16% | > 23 µM | 30.1 min | 46.1 µL/min/mg | 19.6% | -7.1% | – | – | – | – |
| CNC1(c2ccc(C)cc2)CCCCC1=O (racemic) [Compound 119rac, 2-(methylamino)-2-(p-tolyl)cyclohexan-1-one] | 48.1% | > 145 min | < 9.6 µL/min/mg | 3.3 min | 417 µL/min/mg | 5% | 16.7 µM | 75.5 min | 18.4 µL/min/mg | 42% | 10.3% | – | – | – | – |
| O=C1CCCC[C@@]1(c1ccccc1)N1CCOCC1 [Compound 31S, (S)-2-morpholino-2-phenylcyclohexan-1-one] | -5.5% | 61 min | 22.7 µL/min/mg | 9.6 min | 144 µL/min/mg | 1.6% | > 23 µM | 10.8 min | 128 µL/min/mg | -7.9% | 16.9% | – | – | – | – |
| CC1CN(C2(c3ccccc3)CCCCC2=O)C1 (racemic) [Compound 129rac, 2-(3-methylazetidin-1-yl)-2-phenyl-cyclohexan-1-one] | 31.9% | 134 min | 10.4 µL/min/mg | 24.1 min | 57.5 µL/min/mg | 10.6% | 0.52 µM | 9.3 min | 149 µL/min/mg | 28% | 35.8% | – | – | – | – |
| O=C1CCCC[C@]1(c1ccccc1)N1CCOCC1 [Compound 31R, (R)-2-morpholino-2-phenylcyclohexan-1-one] | -3.4% | 45.7 min | 30.3 µL/min/mg | 6.8 min | 204 µL/min/mg | 1.3% | > 23 µM | 11.2 min | 124 µL/min/mg | -1.2% | 9.8% | – | – | – | – |
| NC1(c2ccc(F)cc2)CCCCC1=O (racemic) [Compound 117rac, 2-amino-2-(4-fluorophenyl)cyclohexan-1-one] | 17.1% | > 145 min | < 9.6 µL/min/mg | > 145 min | < 9.6 µL/min/mg | 5% | 8.4 µM | > 145 min | < 9.6 µL/min/mg | -0.91% | 6.8% | – | – | – | – |
| CCN(CC)[C@@]1(c2ccccc2)CCCCC1=O [Compound 25R, (R)-2-(diethylamino)-2-phenylcyclohexanone] | -10.3% | 49 min | 28.3 µL/min/mg | 15.3 min | 90.3 µL/min/mg | 20.8% | 5.5 µM | 8.5 min | 163 µL/min/mg | 26.9% | 20.8% | – | – | – | – |
